Experimental data as given in the NIST ThermoML archive (doi:10.1016/j.jct.2014.01.004).

What was measured:
[1] = for viscosity / speed of sound / mass density: 101.33 kPa, Liquid; for viscosity: Falling or rolling sphere viscometry; for speed of sound: Sing-around technique in a fixed-path interferometer; for mass density: Vibrating tube method
[2] = Molar enthalpy of transition or fusion; settings: Crystal; DSC

O=C[O-].[NH3+]CCCO [3-hydroxypropylammonium formate]
[1]
Settings | Glass transition temperature [°C] | mass density [kg/m3] | speed of sound [m/s] | viscosity [mPa·s]
293.15 K | – | 1148.29 | 1824.3 | 339.04
298.15 K | – | 1145.84 | 1816.3 | 257.15
303.15 K | – | 1143.39 | 1808.3 | 198.39
308.15 K | – | 1140.95 | 1800.5 | 154.49
313.15 K | – | 1138.53 | 1792.3 | 122.56
318.15 K | – | 1136.12 | 1785.2 | 98.17
323.15 K | – | 1133.73 | 1776.4 | 79.84
328.15 K | – | 1131.34 | 1768.3 | 65.37
333.15 K | – | 1128.97 | 1760.4 | 53.98
338.15 K | – | 1126.61 | 1752.5 | 45.36
343.15 K | – | 1124.25 | 1744.7 | 38.38
DTA | -24.00 | – | – | –

CCC[NH3+].O=C[O-] [propylammonium formate]
[1]
Settings | mass density [kg/m3] | speed of sound [m/s] | viscosity [mPa·s]
293.15 K | 996.18 | 1553.1 | 96.77
298.15 K | 993.47 | 1542.7 | 78.6
303.15 K | 990.77 | 1532.4 | 63.58
308.15 K | 988.09 | 1522.2 | 52.67
313.15 K | 985.42 | 1512 | 43.97
318.15 K | 982.75 | 1501.8 | 37.16
323.15 K | 980.1 | 1491.7 | 31.43
328.15 K | 977.45 | 1481.6 | 26.92
333.15 K | 974.8 | 1471.7 | 23.32
338.15 K | 972.15 | 1461.8 | 20.18
343.15 K | 969.49 | 1452 | 17.57

Settings | Normal melting temperature [°C]
[1], Crystal, DTA | 34.00

Settings | Molar enthalpy of transition or fusion [kcal/mol]
[2] | 2.17

O=C([O-])C(F)(F)F.[NH3+]CCCO [3-hydroxypropylammonium trifluoroacetate]
[1]
Settings | Glass transition temperature [°C] | mass density [kg/m3] | speed of sound [m/s] | viscosity [mPa·s]
293.15 K | – | 1311.44 | 1487.9 | 1430.2
298.15 K | – | 1307.81 | 1476.5 | 970.33
303.15 K | – | 1304.2 | 1465.5 | 677.32
308.15 K | – | 1300.58 | 1454.9 | 483.03
313.15 K | – | 1296.96 | 1444.5 | 352.31
318.15 K | – | 1293.34 | 1434.3 | 262.07
323.15 K | – | 1289.72 | 1424.2 | 198.79
328.15 K | – | 1286.1 | 1413.9 | 153.05
333.15 K | – | 1282.49 | 1403.6 | 119.86
338.15 K | – | 1278.88 | 1393.2 | 94.92
343.15 K | – | 1275.25 | 1382.8 | 76.72
DTA | -28.00 | – | – | –

CC(=O)[O-].CCC[NH3+] [propylammonium acetate]
[1]
Settings | Glass transition temperature [°C] | mass density [kg/m3] | speed of sound [m/s] | viscosity [mPa·s]
293.15 K | – | 989.97 | 1517.1 | 932.22
298.15 K | – | 986.91 | 1508 | 627.41
303.15 K | – | 983.85 | 1497.1 | 435.42
308.15 K | – | 980.77 | 1487.6 | 309.95
313.15 K | – | 977.69 | 1477 | 226.35
318.15 K | – | 974.6 | 1467.8 | 167.69
323.15 K | – | 971.5 | 1457.5 | 128.15
328.15 K | – | 968.4 | 1447.9 | 99.03
333.15 K | – | 965.3 | 1437.3 | 78.03
338.15 K | – | 962.17 | 1427.4 | 61.96
343.15 K | – | 959.03 | 1417.5 | 50.02
DTA | -26.00 | – | – | –

CC(=O)[O-].[NH3+]CCCO [3-hydroxypropylammonium acetate]
[1]
Settings | Glass transition temperature [°C] | mass density [kg/m3] | speed of sound [m/s] | viscosity [mPa·s]
293.15 K | – | 1114.58 | 1779.8 | 4261.7
298.15 K | – | 1112.02 | 1770.8 | 2827
303.15 K | – | 1109.46 | 1761.9 | 1937
308.15 K | – | 1106.91 | 1753.3 | 1348.5
313.15 K | – | 1104.36 | 1745.2 | 970.9
318.15 K | – | 1101.8 | 1736.4 | 714.44
323.15 K | – | 1099.24 | 1727.8 | 526
328.15 K | – | 1096.68 | 1719.3 | 400.11
333.15 K | – | 1094.13 | 1710.3 | 305.97
338.15 K | – | 1091.59 | 1702.8 | 238.21
343.15 K | – | 1089.03 | 1693.6 | 190.4
DTA | -26.00 | – | – | –
